Assay in all cases: DTP human tumour cell line panel, 48 h
Assay [1] relates to 786-0 renal.
Assay [2] relates to BT-549 breast.
Assay [3] deals with HOP-92 NSCLC.
The subject of assay [4] is MDA-MB-435.
In assay [5] the test system is NCI-H460 lung.
For assay [6], the system named is SF-268 CNS.
Assay [7] deals with SK-MEL-28 melanoma.
Assay [8] relates to SN12C renal.
Assay [9] has as its system SW-620 colon.
The test system of assay [10] is TK-10 renal.

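Briefly, cells in 96-well plates were exposed to five compound concentrations for 48 h, and endpoints were estimated by linear interpolation. GI50 marks 50% less growth. The concentration for full growth arrest is given as TGI.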

A word on the GI50: it is the concentration giving 50% growth inhibition. A word on the TGI: it is the concentration giving total growth inhibition. Regarding `O=C(N/N=C/c1coc2ccc(Cl)cc2c1=O)c1ccncc1`, the GI50 in assay [1] is 55.3 µM; in assay [2], 71.3 µM; in assay [3], 93.8 µM; in [4], 73 µM; in assay [5] it was 68.2 µM; in assay [6], 89.7 µM. Also, the GI50 was over 100 µM in assay [7], 43.2 µM in [8], over 100 µM in assay [9] and 17.2 µM in assay [10]. Further, the TGI in assay [1], in [2], in assay [3], in assay [4], in assay [5] and in [6] was over 100 µM each time. The TGI was over 100 µM in assay [7], over 100 µM in assay [8], over 100 µM in [9] and 52.5 µM in assay [10].
`CCCCCCCCCCCC1=NC(C)(C)CN1CCO`: the GI50 in [1] is 6.09 µM; in assay [2] it was 13.6 µM; in [3], 1.29 µM; in [4], 2.51 µM; in assay [5] it was 2.88 µM; in [6], 6.68 µM. Moreover, the GI50 in [7] was 2.12 µM; in [8] it was 9.95 µM; in [9], 1.95 µM; in [10], 10.8 µM. The TGI is 19 µM in assay [1]; 34.3 µM in assay [2]; 8.11 µM in assay [3]; 6.98 µM in [4]; 7.66 µM in assay [5]; 20.3 µM in assay [6]. The TGI in [7] was found to be 4.35 µM; in [8], 24.8 µM; in assay [9], 3.94 µM; in assay [10] it was 28.9 µM.
With `O=C1Nc2ccccc2C1(c1ccc(O)c(F)c1)c1ccc(O)c(F)c1`, the GI50 was 18.8 µM in assay [1]; 0.166 µM in [2]; 2.36 µM in assay [3]; 3.06 µM in [4]; 19 µM in [5]; 16.1 µM in assay [6]. The GI50 in [7] was 14.4 µM; in [8], 0.353 µM; in assay [9] it was 20.6 µM; in assay [10] it was 0.409 µM. The TGI in [1] came to 44.1 µM; in [2], 0.593 µM; in assay [3] it was 16.6 µM; in assay [4], 11.2 µM; in [5] it was 47.8 µM; in assay [6], 62.1 µM. Moreover, the TGI in assay [7] amounted to 52 µM; in assay [8] it was 12.2 µM; in [9], 84.3 µM; in assay [10] it was 11.3 µM.
Regarding `CSC(=S)N/N=C/c1ccccc1`, the TGI in assay [1], in assay [2], in assay [3], in assay [4], in assay [5] and in assay [6] was over 100 µM in each case. Also, the TGI in [7], in [8], in [9] and in [10] was over 100 µM throughout.
Consider `Fc1ccc(CNc2c3ccccc3nc3ccccc23)cc1`, for which the GI50 in assay [1] was 3.02 µM; in [2], 4.66 µM; in assay [3], 2.25 µM; in assay [4] it was 1.89 µM; in assay [5], 2.3 µM; in assay [6], 2.74 µM. In addition, the GI50 was 3.27 µM in assay [7], 2.64 µM in [8], 1.95 µM in [9] and 2.83 µM in assay [10]. Also, the TGI in assay [1] was 11.7 µM; in [2] it was 18 µM; in assay [3], 11.5 µM; in assay [4] it was 4.07 µM; in [5], 6.69 µM; in [6], 9.49 µM. Besides, the TGI turned out to be 11.6 µM in assay [7], 10.5 µM in assay [8], 6.84 µM in assay [9] and 10.6 µM in [10].
For `O=C(O)c1cc(N/C=C2\C(=O)c3ccccc3OC2O)ccc1O` (stereo not given), the GI50 was 30.8 µg/mL in assay [1]; 15 µg/mL in assay [2]; 6.73 µg/mL in assay [3]; 23.3 µg/mL in assay [4]; 34 µg/mL in [5]; 24 µg/mL in [6]. Moreover, the GI50 is 31.8 µg/mL in [7], 25.5 µg/mL in [8], 23.4 µg/mL in assay [9] and 39.2 µg/mL in assay [10]. The TGI in assay [1] worked out at 57.7 µg/mL; in [2] it was 71.8 µg/mL; in assay [3] it was 125 µg/mL; in assay [4], 79.2 µg/mL; in assay [5], 81.3 µg/mL; in assay [6], 108 µg/mL. For the same compound, the TGI in assay [7] was 113 µg/mL; in [8] it was 97.3 µg/mL; in [9], 54.2 µg/mL; in [10], 118 µg/mL.
Regarding `O=S(=O)(O)c1ccc(Cl)cc1.[Cd]`, the GI50 in assay [1] is 22.5 µM; in [2] it was 1.94 µM; in assay [3] it was over 100 µM; in assay [4], 20.5 µM; in assay [5] it was 4.61 µM; in assay [6] it was 24.7 µM. Further, the GI50 in assay [7] was over 100 µM; in assay [8], over 100 µM; in assay [9], 52.3 µM; in assay [10] it was over 100 µM. Also, the TGI in assay [1] is 50.2 µM; in assay [2], 3.9 µM; in assay [3], over 100 µM; in assay [4] it was 63 µM; in assay [5], 25.3 µM; in assay [6], 72 µM. Besides, the TGI in assay [7], in assay [8], in [9] and in [10] was over 100 µM in each case.
In the case of `COC(=O)NNc1c([N+](=O)[O-])cnn(-c2ccccc2)c1=O`, the TGI in assay [1] was found to be 7.39 µM; in assay [2] it was 3.21 µM; in [3], 3.9 µM; in [4], 3.03 µM; in [5] it was 15.9 µM; in assay [6] it was 7.71 µM. Also, the TGI was 7.05 µM in assay [7], 3.49 µM in [8], 2.24 µM in [9] and 32.5 µM in assay [10].

The record behind these values is PubChem BioAssay (NCI).
